Values joined by “and” are separate entries in the source; they are usually repeats but may differ in a detail not shown here. Equal values may be shown once.
Test system: SYO-1 tumor spheroids, viability % test/control
Test: Anticancer human tumor SYO-1 cell line growth inhibition;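 note: spheroids exposed to agents for 7 days before viability read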;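 for viability, T/C: 100% = DMSO vehicle control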
Settings: spheroids with HUVEC and MSC; for viability, T/C: stronger effect = lower value
Description: Multicellular complex tumor spheroid response to DNA repair inhibitors in combination with DNA-damaging drugs
This study explores the anticancer activities of DNA-damaging drugs and inhibitors of DNA damage repair, both as single agents and in combinations. Complex tumor spheroids comprised of malignant cells, endothelial cells and mesenchymal stem cells served as an in vitro model for human solid tumors. This model system incorporates physiologically relevant features and patient-derived or established malignant cell lines with clinically relevant genetic alterations from many tumor types. Twenty-six patient-derived or established malignant cell lines were evaluated representing sarcoma, melanoma, small cell lung cancer (SCLC), non-small cell lung cancer (NSCLC), as well as bladder, ovarian and pancreatic cancers. The concentration ranges selected for each drug and investigational agent were based upon clinically achievable concentrations if the clinical Cmax of the agent was known.
Compounds. The drugs and compounds olaparib (NSC753686), talazoparib (NSC767125), berzosertib (NSC777718), elimusertib (NSC800525), nedisertib (NSC802822), VX-984 (NSC792969), AZD-1390 (NSC803789), temozolomide (NSC362856), topotecan (NSC609699), trabectedin (NSC813783), staurosporine (NSC755774), and gemcitabine (NSC613327) were obtained from the National Cancer Institute (NCI) Developmental Therapeutics Program Chemical Repository. The FDA-approved anticancer drug set is available from the Developmental Therapeutics Program at https://dtp.cancer.gov/organization/dscb/obtaining/available_plates.htm. […] The stock solutions were prepared in dimethyl sulfoxide (DMSO, Sigma-Aldrich, St. Louis, MO, cat. D2650) at 400-fold the tested concentration and stored at -70 degrees C. Prior to their use, the stock solutions were diluted in fresh medium and the final DMSO concentration in the assay was 0.25% (v/v). All drugs and investigational agents were tested over a range starting from a high concentration at or near the clinical Cmax and decreasing in half-log increments. If the clinical Cmax for an agent had not been determined, the highest concentration tested was 10 microM.
Cell Lines. The patient-derived cancer cell (PDC) lines: 156681-154-R-J1-PDC, 283228-195-R-J1-PDC, 287954-098-R-J1-PDC, 292921-168-R-J2-PDC, 349418-098-R-PDC, 425362-245-T-J1-PDC, 556581-035-R-J1-PDC, and BL0293-F563-PDC were received from the NCI Patient-Derived Models Repository (PDMR, https://pdmr.cancer.gov). The established cell lines HS-SY-2 (RRID:CVCL_8719), MPNST, and SYO-1 (RRID:CVCL_7146) were obtained from the Sloan Kettering Institute. The alveolar soft parts sarcoma cell line ASPS-1 (RRID:CVCL_S738) was established at the NCI and grown from internal seed stocks. The following established cell lines were purchased from the American Type Culture Collection (ATCC, Manassas, VA): G-401 (ATCC, cat. CRL-1441, RRID:CVCL_0270), SW982 (ATCC, cat. HTB-93, RRID:CVCL_1734), VA-ES-BJ (ATCC, cat. CRL-2138, RRID:CVCL_1785), NCI-H719 (ATCC, cat. CRL-5837, RRID:CVCL_1582), NCI-H196 (ATCC, cat. CRL-5823, RRID:CVCL_1509), NCI-H841 (ATCC, cat. CRL-5845, RRID:CVCL_1595), NCI-H1618 (ATCC, cat. CRL-5879, RRID:CVCL_1480), NCI-H1876 (ATCC, cat. CRL-5902, RRID:CVCL_1503), DMS 114 (ATCC, cat. CRL-2066; RRID:CVCL_1174), NCI-H211 (ATCC, cat. CRL-5824; RRID:CVCL_1529), and SW 1271 (ATCC, cat. CRL-2177, RRID:CVCL_1716). The small cell lung cancer cell line COR-L88 was purchased from Sigma-Aldrich (cat. 92031917-1VL, RRID:CVCL_1141). The non-small cell lung cancer cell lines NCI-H226 (RRID:CVCL_1544) and NCI-H322M (RRID:CVCL_1557) were established at the NCI and grown from internal seed stocks. Pooled donor human umbilical vein endothelial cells (HUVEC, Lonza, cat. CC-2519) and human mesenchymal stem cells (hMSC, Lonza, cat. PT-2501) were purchased from Lonza (Walkersville, MD).
Cell Culture. All cells were maintained in an incubator at 37 degrees C and 5% CO2 with 95% humidity. […]

[1] = compound alone, run of 12/02/2019
[2] = compound alone, run of 12/12/2019

Row | Structure (SMILES) | viability, T/C (compound 0.0316 µM) | viability, T/C (compound 0.1 µM) | viability, T/C (compound 0.316 µM) | viability, T/C (compound 1 µM) | viability, T/C (compound 3.16 µM) | viability, T/C (compound 10 µM) | IC50 (curve of compound) | viability, T/C (compound 0.03 µM) | viability, T/C (compound 0.0949 µM) | viability, T/C (compound 0.3 µM) | viability, T/C (compound 0.949 µM) | viability, T/C (compound 3 µM) | further results
1 | CC(C)n1c(=O)n(C)c2cnc3cc(F)c(-c4ccc(OCCCN5CCCCC5)nc4)cc3c21 | 105% and 101% and 96.7% | 103% and 101% and 98.9% | 84.4% and 102% and 93.8% | 103% and 102% and 104% | 107% and 103% and 104% | 64.1% and 48% and 48.3% | > 10000 nM and 9600 nM and 9620 nM |  |  |  |  |  | 
2 | CC1COCCN1c1cc(-c2ccnn2C)c2ccnc(-c3ccn[nH]3)c2n1 (stereo not given) |  | 3.02% and 9.27% and 5.04% | 1.96% and 2.61% and 2.62% | 1.13% and 1.61% and 1.44% | 0.59% and 0.92% and 0.71% | 0.6% and 0.99% and 0.58% | < 31.6 nM and 32.1 nM |  |  |  |  |  | 
3 | CC[C@@]1(O)C(=O)OCc2c1cc1n(c2=O)Cc2cc3c(CN(C)C)c(O)ccc3nc2-1 |  |  |  |  |  |  |  | 1.67% [middle of 10 runs] | 1.54% [middle of 10 runs] | 1.88% [middle of 10 runs] |  |  | viability, T/C (compound 0.003 µM): 92.2% [middle of 10 runs]; IC50 [1]: 5.58 nM [middle of 5 runs]; IC50 [2]: 6.49 nM [middle of 5 runs]
4 | CNCc1ccc(-c2cc(-c3nc(-c4ccc(S(=O)(=O)C(C)C)cc4)cnc3N)on2)cc1 |  |  |  |  |  |  | 138 nM and 159 nM and 161 nM | 101% and 99.2% and 99% | 72.5% and 86.8% and 89.3% | 3.37% and 4.34% and 3.43% | 0.29% and 0.76% and 0.36% | 0.18% and 0.19% (2×) | viability, T/C (compound 0.00949 µM): 101% and 100% and 109%
5 | COc1cc(C)[nH]c(=O)c1CN1CCc2c(Cl)cc(C(OC)C3COC3)c(Cl)c2C1=O (stereo not given) | 114% and 106% (2×) | 110% and 115% and 112% | 95.1% and 101% and 106% | 78.1% and 82.5% and 90.5% | 67.7% and 80% and 82.7% | 59.9% and 73.2% and 75.6% | > 10000 nM |  |  |  |  |  | 
6 | COc1cc2c(cc1O)CCNC21CSC2c3c(OC(C)=O)c(C)c4c(c3C(COC1=O)N1C(O)C3Cc5cc(C)c(OC)c(O)c5C(C21)N3C)OCO4 (stereo not given) |  |  |  |  |  |  |  |  |  |  |  |  | viability, T/C (compound 30 pM): 97.6% [middle of 10 runs]; viability, T/C (compound 0.0003 µM): 14.7% [middle of 10 runs]; viability, T/C (compound 0.000949 µM): 1.05% [middle of 10 runs]; viability, T/C (compound 0.003 µM): 0.12% [middle of 7 runs]; IC50 [2]: 0.179 nM [middle of 9 runs]
7 | COc1ccc([C@@H](O)c2cc(-c3ncnc4cc(N5CCOCC5)ccc34)c(F)cc2Cl)nn1 | 109% and 108% and 104% | 108% and 107% and 101% | 104% and 106% and 103% | 105% and 101% and 102% | 66.1% (2×) and 84.2% | 7.28% and 14.2% and 20.4% | 4310 nM and 4520 nM and 5860 nM |  |  |  |  |  | 
8 | Cc1cc(C)c(CNC(=O)c2cc(-c3ccc(CN4CCOCC4)cc3)cc3c2cnn3C2CCCC2)c(=O)[nH]1 | 106% and 109% and 103% | 106% and 109% and 100% | 108% and 97.8% and 99.2% | 107% and 104% and 103% | 112% and 104% (2×) | 106% and 67% and 88.7% | > 10000 nM |  |  |  |  |  | 
9 | Cc1sc2c(c1C)C(c1ccc(Cl)cc1)=NC(CC(=O)Nc1ccc(O)cc1)c1nnc(C)n1-2 (stereo not given) |  |  |  |  |  |  | 66.5 nM and 93.4 nM and 105 nM | 90.7% and 90.8% and 85.5% | 31.8% and 49.4% and 54.7% | 1.04% and 3.66% and 1.07% | 0.73% and 0.9% and 0.49% | 0.63% and 0.72% and 0.4% | viability, T/C (compound 0.00949 µM): 93.8% and 91.9% and 91.3%
10 | Cn1ncnc1[C@H]1c2n[nH]c(=O)c3cc(F)cc(c23)N[C@@H]1c1ccc(F)cc1 |  |  |  |  |  |  | 19 nM and 17.4 nM and 17.7 nM | 29.5% and 23.3% and 18.3% | 4.75% and 5.28% and 5.09% | 2.61% and 2.85% and 2.82% | 1.54% and 2.38% and 1.48% | 1.36% and 1.92% and 1.26% | viability, T/C (compound 0.00949 µM): 81.1% and 79.7% and 87.3%
11 | Cn1nnc2c(C(N)=O)ncn2c1=O |  |  |  | 102% [middle of 9 runs] | 98.2% [middle of 10 runs] | 100% [middle of 10 runs] |  |  |  |  |  |  | viability, T/C (compound 31.6 µM): 106% [middle of 10 runs]; IC50 [1]: > 100000 nM and 88300 nM
12 | O=C(c1cc(Cc2n[nH]c(=O)c3ccccc23)ccc1F)N1CCN(C(=O)C2CC2)CC1 |  |  |  |  |  |  | 1760 nM and 2160 nM and 1750 nM |  | 102% (2×) and 103% | 100% and 103% and 99.2% | 90.7% and 93.7% and 94.1% | 14.7% and 32.7% and 11% | viability, T/C (compound 9.49 µM): 3.59% and 3.04% and 2.51%; viability, T/C (compound 30 µM): 2.83% and 2.91% and 2.43%
13 | [2H]c1nc(C)nc([2H])c1-c1cc(NC[C@@H](C)c2cccc3c(C(=O)NC)ccnc23)ncn1 | 107% and 105% and 96.2% | 105% and 104% and 102% | 105% (2×) and 102% | 105% and 99% and 98.5% | 104% (2×) and 96.3% | 100% and 95.5% and 101% | > 10000 nM |  |  |  |  |  | 

Source: PubChem BioAssay AID1845219 (Molecular Pharmacology Branch, DTP, NCI, 2023)
